The values below come from ChEMBL document CHEMBL4152333, “Structure-activity relationships in fungal nucleobases transporters as dissected by the inhibitory effects of novel purine analogues” (Eur J Med Chem, 2018).

A short description of assay [1]: Inhibition of fungal FcyB expressed in Aspergillus nidulans assessed as reduction in FcyB-mediated [2,8-3H]-adenine accumulation. On the set-up: species or system Fungi.
For assay [2], the system named is Fungi. Kind of assay: Inhibition of fungal FcyB expressed in Aspergillus nidulans assessed as reduction in FcyB-mediated at 0.5 mM.
The target of assay [3] is Uric acid-xanthine permease (Emericella nidulans (strain FGSC A4 / ATCC 38163 / CBS 112.46 / NRRL194 / M139) (Aspergillus nidulans)) (UniProt Q07307). The assay can be described thus: Inhibition of fungal UapA expressed in Aspergillus nidulans assessed as reduction in UapA-mediated [8-3H]-xanthine accumulation at 0.5 mM. Particulars: Fungi.
The test system of assay [4] is Fungi. The assay can be described thus: Inhibition of fungal FcyB expressed in Aspergillus nidulans assessed as FcyB-mediated [2,8-3H]-adenine accumulation rate at 500 uM relative to untreated control. Set-up: scale not given: the % may be the effect or the level left.
In assay [5] the target is T1, Uncharacterized protein (Emericella nidulans (strain FGSC A4 / ATCC 38163 / CBS 112.46 / NRRL194 / M139) (Aspergillus nidulans)) (UniProt G5EB00).
T1 sequence (whole entry): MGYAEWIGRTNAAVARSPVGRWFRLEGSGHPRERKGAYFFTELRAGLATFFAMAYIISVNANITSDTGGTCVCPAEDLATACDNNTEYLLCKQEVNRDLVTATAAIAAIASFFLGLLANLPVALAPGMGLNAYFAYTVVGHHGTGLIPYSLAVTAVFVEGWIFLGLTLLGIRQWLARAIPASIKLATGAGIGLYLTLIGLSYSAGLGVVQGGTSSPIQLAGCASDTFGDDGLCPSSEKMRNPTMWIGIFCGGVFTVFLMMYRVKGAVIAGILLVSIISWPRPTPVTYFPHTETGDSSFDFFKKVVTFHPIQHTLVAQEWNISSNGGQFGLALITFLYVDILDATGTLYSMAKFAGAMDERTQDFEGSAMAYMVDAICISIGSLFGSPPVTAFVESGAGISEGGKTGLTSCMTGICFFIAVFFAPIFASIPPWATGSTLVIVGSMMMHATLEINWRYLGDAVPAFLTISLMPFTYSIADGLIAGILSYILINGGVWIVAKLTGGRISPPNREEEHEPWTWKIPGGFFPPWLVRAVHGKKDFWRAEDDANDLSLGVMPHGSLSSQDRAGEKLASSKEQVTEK
The assay can be described thus: Inhibition of fungal AzgA expressed in Aspergillus nidulans assessed as reduction in AzgA-mediated [2,8-3H]-adenine accumulation at 0.5 mM. Particulars: Fungi.

The target in a further assay is T2, Uncharacterized protein (Emericella nidulans (strain FGSC A4 / ATCC 38163 / CBS 112.46 / NRRL194 / M139) (Aspergillus nidulans), UniProt G5EB00).
T2 sequence (G5EB00 whole entry): T1 sequence (whole entry)
The assay can be described thus: Inhibition of fungal AzgA expressed in Aspergillus nidulans assessed as reduction in AzgA-mediated [2,8-3H]-adenine accumulation. On the set-up: species or system Fungi.

The source made the active and inactive calls. The rule behind the calls is not given here.

Sequence of Uric acid-xanthine permease (Emericella nidulans (strain FGSC A4 / ATCC 38163 / CBS 112.46 / NRRL194 / M139) (Aspergillus nidulans)) (Q07307 whole entry, looked up): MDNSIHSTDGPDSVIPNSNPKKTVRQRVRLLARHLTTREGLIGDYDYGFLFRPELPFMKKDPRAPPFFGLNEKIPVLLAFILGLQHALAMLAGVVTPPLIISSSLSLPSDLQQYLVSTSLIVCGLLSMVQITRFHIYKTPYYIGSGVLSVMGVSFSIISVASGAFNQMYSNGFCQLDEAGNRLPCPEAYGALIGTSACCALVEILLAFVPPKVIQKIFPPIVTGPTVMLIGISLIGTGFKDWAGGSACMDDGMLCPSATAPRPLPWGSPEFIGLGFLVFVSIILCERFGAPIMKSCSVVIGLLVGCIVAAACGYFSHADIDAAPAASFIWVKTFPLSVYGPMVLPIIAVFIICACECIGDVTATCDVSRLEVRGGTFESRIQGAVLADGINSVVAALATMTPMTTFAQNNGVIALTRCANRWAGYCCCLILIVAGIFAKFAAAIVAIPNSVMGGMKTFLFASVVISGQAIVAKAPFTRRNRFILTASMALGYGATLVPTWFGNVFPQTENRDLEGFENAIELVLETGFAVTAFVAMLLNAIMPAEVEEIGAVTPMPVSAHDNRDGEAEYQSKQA

What is called Ki is the equilibrium dissociation constant of an inhibitor or competing ligand from its target. Regarding `CN1CCN(c2nccc3c2ncn3C2CCCC2)CC1`, in assay [1], the Ki was 38 µM.
Take `Nc1[nH]cnc2ncnc1-2` [ADENINE]: the Ki in assay [1] stood at 7 µM.
In the case of `Nc1ccnc2c1nc(-c1ccc([N+](=O)[O-])cc1)n2Cc1ccccc1`, the inhibition entry (in the assay on Fungi [2]; in assay [3]) was “inactive” each time.
Take `Sc1nc2c(NCc3ccccc3)nccc2[nH]1`: the inhibition result in assay [3] was “inactive”.
In the case of `Nc1ccnc2c1nc(-c1ccccc1O)n2Cc1ccccc1`, the inhibition entry (in the assay on Fungi [2]; in assay [3]) was “inactive” in each case.
Regarding `CN1CCN(c2nccc3[nH]c(S)nc23)CC1`, the inhibition result in assay [3] was “inactive”.
Take `O=c1[nH]cnc2nc[nH]c12` [HYPOXANTHINE]: the inhibitory constant (Ki) in assay [1] came out at 11 µM.
In the case of `COc1ccc(OC)c(-c2nc3c(NCc4ccccc4)nccc3[nH]2)c1`, the Activity in the assay with Fungi [4] is < 10%. For the same compound, the inhibition entry in assay [5] is “Active”. Further, the inhibitory constant (Ki) in assay [1] is 42 µM. The inhibition entry in assay [3] was “inactive”.
`CN1CCN(c2nccc3c2nc(-c2ccccc2O)n3Cc2ccccc2O)CC1`: the inhibition entry (in the assay on Fungi [2]; in assay [3]) was “inactive” in each case.
As to `Oc1ccccc1-c1nc2c(NCc3ccccc3)nccc2[nH]1`, the Activity in the assay on Fungi [4] was < 10%. Also, in assay [5], the inhibition result was “Active”. Further, the inhibition constant (Ki) came to 82 µM in assay [1] and 58 µM at Uncharacterized protein. Also, in assay [3], the inhibition entry was “inactive”.
In the case of `Nc1ccnc2c1nc(S)n2Cc1ccccc1`, the inhibition result (with Fungi [2]; in assay [3]) was “inactive” in each case.
For the compound `CN1CCN(c2nccc3[nH]c(-c4ccncc4)nc23)CC1`, the inhibition entry in assay [3] was “inactive”.
Consider `c1ccc(CNc2nccc3[nH]c(-c4ccncc4)nc23)cc1`, for which, in the assay on Fungi [4], the Activity is < 10%. Moreover, the inhibition entry in assay [5] was “Active”. The Ki in assay [1] was determined as 72 µM. In addition, the inhibition result in assay [3] was “inactive”.
As to `COc1ccc(OC)c(-c2nc3c(N4CCN(C)CC4)nccc3[nH]2)c1`, in the assay with Fungi [4], the Activity is < 10%. Besides, in assay [1], the Ki is 100 µM. The inhibition result in assay [3] is “inactive”.
For the compound `CN1CCN(c2nccc3[nH]c(-c4ccc([N+](=O)[O-])cc4)nc23)CC1`, the inhibition entry in assay [5] was “Active”. For the same compound, in assay [1], the inhibition constant (Ki) was determined as 106 µM. In addition, the inhibition entry in assay [3] was “inactive”.
Regarding `Nc1ccnc2c1nc(-c1ccncc1)n2Cc1ccccc1`, the inhibition result (in the assay with Fungi [2]; in assay [3]) was “inactive” throughout.
As for `CN1CCN(c2nccc3c2nc(-c2ccncc2)n3Cc2ccncc2)CC1`, the inhibition entry in assay [3] is “inactive”.
`COc1ccc(OC)c(-c2nc3c(N)ccnc3n2Cc2ccccc2)c1`: the inhibition result (with Fungi [2]; in assay [3]) was “inactive” throughout.
`CN1CCN(c2nccc3[nH]c(-c4ccccc4O)nc23)CC1`: the Activity in the assay with Fungi [4] is < 10%. For the same compound, the Ki in assay [1] was 49 µM. The inhibition entry in assay [3] was “inactive”.
On to `O=[N+]([O-])c1ccc(-c2nc3c(NCc4ccccc4)nccc3[nH]2)cc1`, for which, in assay [3], the inhibition entry is “inactive”.
As for `CN1CCN(c2nccc3[nH]c(O)nc23)CC1`, the Activity in the assay with Fungi [4] was < 10%. The Ki in assay [1] worked out at 19 µM. Also, the inhibition result in assay [3] is “inactive”.
`CC(C)n1cnc2c(NCc3ccccc3)nccc21`: the inhibitory constant (Ki) in assay [1] was 5 µM.
In the case of `Oc1nc2c(NCc3ccccc3)nccc2[nH]1`, in assay [1], the Ki turned out to be 74 µM. Also, in assay [3], the inhibition entry was “inactive”.
`Nc1ccnc2c1nc(O)n2Cc1ccccc1`: the inhibition result (in the assay with Fungi [2]; in assay [3]) was “inactive” in each case.
